Assays:
Pyrenophora teres = test: Protective effect of Pyrenophora teres on barley seedlings (spray, protection value from lesion area ratio; Colby's equation for mixtures); format: in vivo
Protocol: (§1) Hereunder, the evaluation of each fungicide was carried out by converting the ratio into a protection value after measuring the lesion area ratio (in percentage). The protectin value was calculated by means of the equation as follows.
(§2) protection value=(1−(lesion area in the division treated with fungicide)/lesion area in the division not treated with fungicide))×100
(§3) An estimated protection value of a mixture of active ingredients was calculated according to the Colby's equation [R. S. Colby, Weeds 15, 20-22 (1967)] and compared with the experimental protection value.
(§4) wherein E is the estimated protection value (additive effect) which will be obtained when the active ingredients A and B are used in a mixture in concentrations a and b, respectively, x is the protection value obtained when the active ingredient A is used in a concentration a, and y is the protection value obtained when the active ingredient B is used in a concentration b. […] A protection value 0 means that the lesion area ratio of the plants in the test group is as large as that of the plants in the untreated control group. A protective value 100 means that the plants in the test group are free from the disease.
The supplied compound (that is, the compound to which number (No.) was attached in Table 1), and A (picoxystrobin), B (trifloxystrobin), C (pyraclostrobin), D (cresoxime methyl), E (epoxiconazole), F (flusilazole) and G (tebuconasole) shown in Table 31 were, alone or in a mixture form, dissolved into dimethylformamide (final concentration: 1% by weight). Thereto were added xylene (final concentration: 0.02% by weight) and Tween 20 (trade name) (final concentration: 0.02% by weight), and then the solution was diluted with water to have a desired effective component concentration (ppm). To this solution was added a spreading agent SINDAIN (trade name, made by Takeda Chemical Industries, Ltd.) containing 20% by weight of polyoxyethylene nonylphenyl ether and 12% by weight of calcium ligninsulfonate so as to have a final concentration of 0.05% by weight. Thus, a spray solution was prepared. The solution was sprayed, at a rate of 40 ml/pot, onto barley seedlings (cultural variety: Shiaga Hasseki No. 5) grown for 1 week in a greenhouse. After air drying, a suspension containing spores (5×10^5/ml) of Pyrenophora teres was sprayed and inoculated thereto at a rate of 2 ml/pot. After the inoculation, the seedlings were kept inside a high-humidity box having a temperature of 24° C. for 18 hours and then put into a room. After 9 days, the lesion area ratio on the treated leaves was investigated.

Alternaria mali = test: Prevention effect of Alternaria mali on apple seedlings (spray, protection value from lesion area ratio; Colby's equation for mixtures); format: in vivo
Protocol: as §1, §2, §3, §4
The supplied compound (that is, the compound to which number (No.) was attached in Table 1-29), and A (picoxystrobin), B (trifloxystrobin), and C (pyraclostrobin) shown in Table 30 were, alone or in a mixture form, dissolved into dimethylformamide (final concentration: 1% by weight). Thereto were added xylene (final concentration: 0.02% by weight) and Tween 20 (trade name) (final concentration: 0.02% by weight), and then the solution was diluted with water to have a desired effective component concentration (ppm). To this solution was added a spreading agent SINDAIN (trade name, made by Takeda Chemical Industries, Ltd.) containing 20% by weight of polyoxyethylene nonylphenyl ether and 12% by weight of calcium ligninsulfonate so as to have a final concentration of 0.05% by weight. Thus, a spray solution was prepared. The solution was sprayed, at a rate of 10 ml/pot, onto the apple seedlings (cultural variety: Star King Delicous) grown for 3 or 4 weeks in a greenhouse. After one day from the treatment, a suspension containing a 1% yeast extract, a 1% sucrose, and spores (5×10^5/ml) of Alternaria mali was sprayed and inoculated thereto at a rate of 1 ml/pot. After the inoculation, the trees were kept inside a high-humidity box having a temperature of 28° C. for 4 days. Thereafter, the lesion area ratio on the treated leaves was examined.

Structure (SMILES)	Lesion area ratio (%) (Pyrenophora teres; 5.0 ppm active ingredient)	Protection value (Pyrenophora teres; 5.0 ppm active ingredient)	Lesion area ratio (%) (Alternaria mali; 6.3 ppm active ingredient)	Protection value (Alternaria mali; 6.3 ppm active ingredient)	Lesion area ratio (%) (Alternaria mali; 25.0 ppm active ingredient)	Protection value (Alternaria mali; 25.0 ppm active ingredient)	Lesion area ratio (%) (Alternaria mali; 100.0 ppm active ingredient)	Protection value (Alternaria mali; 100.0 ppm active ingredient)	Lesion area ratio (%) (Pyrenophora teres; 0.2 ppm active ingredient)	Protection value (Pyrenophora teres; 0.2 ppm active ingredient)	further results
CC(C)(C)C(O)(CCc1ccc(Cl)cc1)Cn1cncn1 (centres unmarked) [tebuconasole]	22.5	55	–	–	–	–	–	–	–	–	–
CO/N=C(/C(=O)OC)c1ccccc1CO/N=C(\C)c1cccc(C(F)(F)F)c1 [trifloxystrobin, methyl-(E)-methoxyimino-{(E)-α-[1-(α,α,α-trifluoro-m-tolyl)ethylideneaminooxy]-o-tolyl}acetate]	–	–	61.7	0	4.7	90	2.2	95	27.5	45	–
CO/N=C(/C(=O)OC)c1ccccc1COc1ccccc1C [cresoxime methyl]	27.5	45	–	–	–	–	–	–	–	–	–
COC(=O)N(OC)c1ccccc1COc1ccn(-c2ccc(Cl)cc2)n1 [pyraclostrobin, methyl N-{2-[1-(4-chlorophenyl)-1-H-pyrazol-3-yloxymethyl]phenyl}(N-methoxy)carbamate]	–	–	11.0	77	11.0	77	3.7	92	12.5	75	–
C[Si](Cn1cncn1)(c1ccc(F)cc1)c1ccc(F)cc1 [flusilazole]	25.0	50	–	–	–	–	–	–	–	–	–
CCN(c1ccc(Cl)cc1[N+](=O)[O-])S(=O)(=O)c1ccc(C)cc1 [Compound No. 289, 4′-chloro-N-ethyl-2′-nitro-p-toluenesulfonanilide]	–	–	3.5	93	–	–	–	–	–	–	Lesion area ratio (%) (Alternaria mali; 0.4 ppm active ingredient): 19.8%; Protection value (Alternaria mali; 0.4 ppm active ingredient): 58; Lesion area ratio (%) (Alternaria mali; 1.6 ppm active ingredient): 19.5%; Protection value (Alternaria mali; 1.6 ppm active ingredient): 59; Lesion area ratio (%) (Pyrenophora teres; 0.5 ppm active ingredient): 17.5%; Protection value (Pyrenophora teres; 0.5 ppm active ingredient): 65; melting point: 132.5 to 134 °C
CO/C=C(/C(=O)OC)c1ccccc1COc1cccc(C(F)(F)F)n1 [picoxystrobin, methyl (E)-3-mthoxy-2-{2-[6-(trifluoromethyl)-2-pyridyloxymethyl]phenyl}acrylate]	–	–	11.5	76	9.5	80	6.2	87	17.5	65	–
Fc1ccc([C@]2(Cn3cncn3)O[C@H]2c2ccccc2Cl)cc1 (racemic) [epoxiconazole, (2RS,3SR)-1-[3-(2-chlorophenyl)-2,3-epoxy-2-(4-fluorophenyl)propyl]-1H-1,2,4-triazole]	15.0	70	–	–	–	–	–	–	–	–	–

— patent publication US20040067853A1, “Sulfonamide derivative-containing agricultural and horticultural composition” (priority 2001, published 2004)
